Measurements from ChEMBL document CHEMBL5608166, “Current therapy in amyotrophic lateral sclerosis (ALS): A review on past and future therapeutic strategies” (Eur J Med Chem, 2024).

Target: Tau-tubulin kinase 2 (Homo sapiens, UniProt Q6IQ55)
Test: Inhibition of TTBK2 (unknown origin)

Sequence of Tau-tubulin kinase 2 (Q6IQ55 whole entry): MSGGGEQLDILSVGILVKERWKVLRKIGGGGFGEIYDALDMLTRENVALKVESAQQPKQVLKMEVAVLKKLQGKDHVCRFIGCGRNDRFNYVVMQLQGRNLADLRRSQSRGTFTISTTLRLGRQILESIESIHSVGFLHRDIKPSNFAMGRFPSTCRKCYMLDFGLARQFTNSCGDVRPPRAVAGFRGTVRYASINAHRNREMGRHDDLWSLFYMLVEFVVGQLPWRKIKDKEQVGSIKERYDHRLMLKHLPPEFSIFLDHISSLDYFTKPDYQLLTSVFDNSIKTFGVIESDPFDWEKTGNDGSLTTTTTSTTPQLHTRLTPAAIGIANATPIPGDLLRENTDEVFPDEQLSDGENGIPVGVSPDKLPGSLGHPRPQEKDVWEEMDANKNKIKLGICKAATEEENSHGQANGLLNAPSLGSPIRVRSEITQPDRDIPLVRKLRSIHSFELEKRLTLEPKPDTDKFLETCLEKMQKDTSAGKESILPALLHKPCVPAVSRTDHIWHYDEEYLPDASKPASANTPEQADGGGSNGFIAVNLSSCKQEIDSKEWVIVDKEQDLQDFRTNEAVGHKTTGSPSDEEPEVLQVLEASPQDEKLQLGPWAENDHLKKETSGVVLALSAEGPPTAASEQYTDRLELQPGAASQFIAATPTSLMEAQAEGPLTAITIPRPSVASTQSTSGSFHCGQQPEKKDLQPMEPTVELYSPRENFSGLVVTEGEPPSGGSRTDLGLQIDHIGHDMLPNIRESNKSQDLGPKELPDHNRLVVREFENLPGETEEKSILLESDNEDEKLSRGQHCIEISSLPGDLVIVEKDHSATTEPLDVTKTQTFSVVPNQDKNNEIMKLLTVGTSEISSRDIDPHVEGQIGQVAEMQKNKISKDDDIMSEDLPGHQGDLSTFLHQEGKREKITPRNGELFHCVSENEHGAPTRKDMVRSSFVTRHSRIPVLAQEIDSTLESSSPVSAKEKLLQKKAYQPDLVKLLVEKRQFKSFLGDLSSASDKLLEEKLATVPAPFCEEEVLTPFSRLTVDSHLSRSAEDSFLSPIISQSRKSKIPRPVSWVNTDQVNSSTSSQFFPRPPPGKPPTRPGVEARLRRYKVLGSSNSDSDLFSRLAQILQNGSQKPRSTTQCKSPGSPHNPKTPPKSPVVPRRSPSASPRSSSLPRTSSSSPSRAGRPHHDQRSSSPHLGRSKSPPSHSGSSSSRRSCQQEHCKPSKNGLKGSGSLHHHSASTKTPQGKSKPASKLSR

- IC50: 1.6 nM
SMILES: CC1(N)CCN(Cc2ccn3ncnc(Nc4cc(O)cc(Br)c4)c23)CC1
